Reference: ChEMBL document CHEMBL1201862, “PubChem BioAssay data set” (2004)
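These data come from cells grown in 96-well plates and exposed to compound for 48 hours at five concentrations. GI50 marks 50% less growth.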 Activity calls are given as the source filed them. Cut-off read from the data, not from the text of the source: active = GI50 up to about 1.1 µM and inactive = higher.

Experiments:
Experiment in all cases: NCI-60 cell line screen, 48 h
[1] = tested on: ACHN
[2] = tested on: DU-145
[3] = tested on: HCC 2998
[4] = tested on: HCT-116
[5] = tested on: HL-60
[6] = tested on: HOP-62
[7] = tested on: KM12
[8] = tested on: MDA-MB-231
[9] = tested on: Malme-3M
[10] = tested on: NCI-H23
[11] = tested on: NCI-H460
[12] = tested on: RPMI-8226
[13] = tested on: SF-268
[14] = tested on: SF-539
[15] = tested on: SK-MEL-2
[16] = tested on: UACC-257
[17] = tested on: UACC-62
[18] = tested on: OVCAR-4
[19] = tested on: SF-295

Measured: GI50

CCC(=O)NC(Nc1ccc(O)cc1)(C(F)(F)F)C(F)(F)F
inactive: [1] 56 µM | [2] > 100 µM | [3] > 100 µM | [4] 46.3 µM | [5] 18.5 µM | [6] > 100 µM | [7] 62.7 µM | [8] 73.8 µM | [9] 42.2 µM | [10] 67.8 µM | [11] > 100 µM | [12] 33.3 µM | [13] > 100 µM | [14] 96.4 µM | [15] 41.6 µM | [16] 37.4 µM | [17] 40.1 µM

O=c1c2c3c(sc2nc2n1NC=NN2)CCCC3
inactive: [1] 16.7 µM | [2] 36.6 µM | [3] 24.4 µM | [4] 17.9 µM | [5] 1.2 µM | [7] 18.1 µM | [8] 13.4 µM | [9] 21.4 µM | [10] 26.2 µM | [11] 20.2 µM | [18] 17.6 µM | [12] 20.5 µM | [13] 17.5 µM | [19] 15.8 µM | [14] 17.4 µM | [15] 19.4 µM | [16] 19.9 µM | [17] 17.6 µM

O=CC1OC(=O)c2cc(O)c(O)c(O)c2-c2c(cc(O)c(O)c2O)C(=O)OC1C(O)C(O)CO (stereo unspecified)
inactive: [1] 43.6 µM | [2] > 100 µM | [3] > 100 µM | [4] 28.1 µM | [5] 35.4 µM | [6] 63.2 µM | [7] 41.5 µM | [8] 17.1 µM | [9] > 100 µM | [10] > 100 µM | [11] 28.8 µM | [18] 17.4 µM | [12] 26.2 µM | [13] > 100 µM | [19] 27.9 µM | [14] > 100 µM | [15] 15.4 µM | [16] 82 µM

COc1ccc(-c2cc(-c3ccc(Nc4ccnc5cc(Cl)ccc45)cc3)nc(N)c2C#N)cc1
inactive: [1] > 100 µM | [2] > 100 µM | [3] > 100 µM | [4] > 100 µM | [5] > 100 µM | [6] > 100 µM | [7] > 100 µM | [8] > 100 µM | [9] > 100 µM | [10] > 100 µM | [11] > 100 µM | [18] > 100 µM | [12] > 100 µM | [13] > 100 µM | [19] > 100 µM | [14] > 100 µM | [15] > 100 µM | [17] > 100 µM

O/N=C1/CC2(N3CCOCC3)C3CC/C(=N\O)C2CC1(Cc1ccccc1)C3 (stereo unspecified)
inactive: [1] > 100 µM | [2] > 100 µM | [3] > 100 µM | [4] 44.5 µM | [5] 67 µM | [6] > 100 µM | [7] > 100 µM | [8] > 100 µM | [9] > 100 µM | [10] > 100 µM | [11] > 100 µM | [18] > 100 µM | [13] > 100 µM | [19] > 100 µM | [14] > 100 µM | [15] > 100 µM | [16] 66.8 µM | [17] > 100 µM

CN1CC[C@@]2(c3cccc(O)c3)CC(=O)/C(=C/c3ccccc3)[C@H]1C2.[O-][Cl+3]([O-])([O-])O
inactive: [1] 8.11 µM | [2] 15.8 µM | [3] 10.4 µM | [4] 3.37 µM | [5] 2.25 µM | [6] 18.5 µM | [7] 3.81 µM | [8] 6.82 µM | [9] 15 µM | [10] 16 µM | [11] 3.52 µM | [18] 7.94 µM | [12] 2.44 µM | [13] 4.28 µM | [19] 11.3 µM | [14] 16.9 µM | [15] 19.8 µM | [16] 16.1 µM

N#CC(c1ccccc1)N(CCOCCOCCN(C(=O)c1ccccc1)C(C#N)c1ccccc1)C(=O)c1ccccc1 (stereo unspecified)
inactive: [1] > 100 µM | [2] > 100 µM | [3] 94.2 µM | [4] 46.6 µM | [5] 36.2 µM | [7] > 100 µM | [8] > 100 µM | [9] 93.5 µM | [10] 84.7 µM | [11] 81.3 µM | [18] 81.7 µM | [13] > 100 µM | [19] > 100 µM | [14] > 100 µM | [15] 85.3 µM | [16] 47.1 µM | [17] 53.6 µM

CCc1c(Cc2cc(C)cc(C)c2)n2c(nc1=O)SCC2CBr (stereo unspecified)
inactive: [1] > 50 µM | [2] 23.1 µM | [3] > 50 µM | [4] > 50 µM | [5] > 50 µM | [7] > 50 µM | [8] 19.6 µM | [9] 12.9 µM | [10] > 50 µM | [11] > 50 µM | [18] 46.1 µM | [12] > 50 µM | [13] > 50 µM | [14] > 50 µM | [15] 44.4 µM | [16] > 50 µM | [17] > 50 µM
